Reference: patent US7118744B2, “Immunogenic compositions for induction of anti-tumor immunity” (Yeda Research and Development Co., Ltd., priority 1997, dated 2006)
Ends that are not written are not given here.

Legend:
Meth A Sarcoma Cells = test: Rejection of Meth A tumor challenge in immunized mice; assay type: in vivo; settings: BALB/c mice immunized with 100 μg CDR-based peptide
Procedure: (a) The Meth A tumor is a transplantable 3-methylcholantrene-induced sarcoma of BALB/c origin (Old et al., 1962) that has three mutations in the p53 coding sequence (Arai et al., 1986). The cells were grown in DMEM containing 10% heat-inactivated fetal calf serum (FCS), and passaged through BALB/c mice to select for tumorogenicity. For challenge, mice were injected intradermally with 10^6 Meth A cells. […] Rejection was scored as the disappearance of the tumor mass within 20 days after tumor challenge.
To learn whether immunization with anti-p53 mAb might influence in vivo the development of a tumor bearing a mutated form of the p53 molecule, groups of BALB/c female mice were immunized as above with either mAb 240, mAb 246, mAb 421 or mAb 9E 10. The mice were challenged intradermally with 10^6 Meth A tumor cells 10 days after the boost. Non-immunized mice were also tested.
Immunization of BALB/c mice with peptides V–IX of Example 3 was carried out as described for the whole mAbs in Materials and Methods, section iv, using 100 μg of peptide, and then assayed for the development of anti-p53 antibodies.

p53 = test: Induction of anti-p53 antibodies in immunized mice, ELISA on wild type p53; assay type: in vivo, mouse; settings: BALB/c mice immunized with 100 μg of peptide
Procedure: E Coli BL21 (DE3) cells transformed with the T7 expression vector containing regularly spliced mouse p53 cDNA were used to express wild type or mutant p53 as previously described (Shohat-Foord et at., 1991; Wolkowicz et al., 1995). For protein induction, IPTG at a final concentration of 0.4 mM was added when the cells had reached an O.D.600 of 0.8–1.0. Three hours after induction, the cells were harvested from a 200 ml culture by centrifugation, and the pellet was resuspended in 5 ml of ice-cold lysis buffer (20 mM Tris-HCl, pH: 7.4; 500 mM NaCl; 10% glycerol; 1 mM EDTA; 1 mM PMSF; 5 μg/ml leupeptine; 10 μg/ml aprotinin and 0.1% NP40). The lysate was subjected to sonication for 10 cycles of 15 s of sonication followed by 15 s of gentle swirling. The solicited sample was subjected to two cycles of freeze-thaw and then centrifuged for 10 min at 10.000× g. […]
[…] Antibodies were measured after booster immurdzation.
For the ELISA assay flat bottom maxi-sorb plates (Nunc, Roskilde, Denmark) were coated with 50 μl per well of mutant or wild type p53 at a concentration of 10 μg/ml. […] After washing, the plates were incubated with the substrate, p-nitrophenil phosphate disodium (Sigma) and read using an ELISA reader at 405 nm. Sera manifesting an O.D. reading, after substraction of the background, of 0.3 or greater, were scored as positive.

Sequence	Incidence of Rejected Tumors (Meth A Sarcoma Cells)	incidence of mice developing IgG anti-p53 antibodies (ELISA assay) (p53)
AVYYCARSGSRFDYWGEGTT [Peptide VIII, includes CDR3 of the heavy chain of mAb 248]	4/5	–
GDINPNNGYTIYNQKVKGKA [Peptide VII, includes CDR2 of the heavy chain of mAb 246]	5/5	–
GVYYCWQGTHSPLTFGAGTK [Peptide VI, includes CDR3 of the light chain of mAb 421]	5/5	7/10
VYFCQQSNSWPVHARGGGTK [Peptide IX, includes CDR3 of the light chain of mAb 248]	4/5	–
YYCQHIRELTRSEGGPS [Peptide V, includes CDR3 of the light chain of mAb 240]	4/5	8/10
